Experimental findings from publication PMC11547703, “Design, Synthesis, and Evaluation of Doxifluridine Derivatives as Nitroreductase-Responsive Anticancer Prodrugs” (Molecules, 2024) are described below.

For data set [1], the system named is MCF-7 human breast cancer cells. The data set is described as follows: In vitro cytotoxicity (MTT assay) in MCF-7 cells with or without NTR. Type of data set: cell-based. The note with it: for IC50: Homo sapiens, MCF7, MCF-7, 24 h, MTT; for IC50 (NTR-Free)/ IC50 (NTR): MCF-7, selectivity ratio. Here is the method: (§1) The cytotoxicity of the target compounds 1c–6c were evaluated in MCF-7 human breast cancer cells and HT29 human colon cancer cells. These two cell lines were chosen because 5′-DFUR is currently used to treat breast and gastrointestinal tumors. The cells were incubated with the target compounds at various concentrations for 24 h in the presence or absence of NTR. The cell viability and proliferation behavior were assessed by 3-(4,5-dimethylthiazol-2-yl)-2,5-diphenyltetrazolium (MTT) assay. The half-maximal inhibitory concentration values of the tested compounds for inhibiting cell proliferation are shown in Table 1.
(§2) MCF-7 human breast cancer cells or HT29 human colon cancer cells purchased from the National Collection of Authenticated Cell Cultures were cultured in RPMI 1640 medium, and McCoy’s 5A medium supplemented with 10% fetal bovine serum and 1% penicillin-streptomycin in a humidified 5% CO2 incubator at 37 °C. Cells in the logarithmic growth phase were inoculated into 96-well plates at a density of 1.0 × 10^4 cells per well and cultured for 24 h. The target compounds were dissolved in DMSO and diluted in medium to different concentrations. The cells were then incubated with different concentrations of the target compound for 24 h. The cells in the NTR treatment group were incubated with various concentrations of compounds, NTR (final concentration, 50 µg/mL) and NADH (final concentration, 2 mM) for 24 h. Cell viability and proliferation were measured by MTT assay. Cell viability was calculated according to the following formula: cell viability (%) = (OD value of treatment group–OD value of blank group)/(OD value of control group–OD value of blank group) × 100. The half-maximal inhibitory concentration values were calculated from concentration-response curves using GraphPad PRISM (version 5.0, GraphPad, San Diego, CA, USA).
For orientation: Tetrazolium dyes change colour on reduction, which living cells bring about.

Data set [2] relates to HT29 human colon cancer cells. The data set is described as follows: In vitro cytotoxicity (MTT assay) in HT29 cells with or without NTR. Type of data set: cell-based. The note with it: for IC50 (NTR-Free)/ IC50 (NTR): HT29, selectivity ratio; for IC50: Homo sapiens, HT-29, HT29, 24 h, MTT. Here is the method: as §1, §2
The subject of another data set is HT29 colon cancer cells. In words: In vivo antitumor activity in HT29 tumor-bearing mice. The note with it: 50 mg/kg intraperitoneally every 2 days for 4 weeks, HT29 tumor-bearing C57BL/6 mice. Here is the method: Compound 2c, which has excellent stability, a high metabolic rate, and strong cytotoxicity under NTR conditions in vitro, was selected for the in vivo evaluation of antitumor activity in tumor-bearing mice. Tumor-bearing mice were generated by the axillary injection of HT29 colon cancer cells into C57BL/6 mice. When the tumors grew to approximately 100–150 mm^3, the mice were randomly divided into negative control (vehicle), compound 2c (50 mg/kg), and positive control 5′-DFUR (50 mg/kg) groups (n = 6 each). The mice were injected intraperitoneally every 2 days for 4 weeks, and the tumor volume and body weight of the mice were measured every 2 days. No death occurred in any group of mice during the experimental period.
Four-week-old C57BL/6 mice were purchased from Jinan Pengyue Experimental Animal Breeding Co. Ltd. (Jinan, China). The mice were housed in cages under a 12-h light/dark cycle from 7:00 to 19:00 at controlled temperatures (25–26 °C) and relative humidity (50 ± 10%) throughout the experimental period. All animals were allowed to eat and drink freely unless otherwise stated and allowed to acclimate for 1 week before the experiment. All animal experimental protocols were performed in accordance with applicable institutional and governmental regulations concerning the ethical use of animals (AP2024022954).
The tumor-bearing mice model was established by the subcutaneous injection of HT29 cells (1 × 10^7 cells/mL) purchased from the National Collection of Authenticated Cell Cultures to the right axilla of C57BL/6 mice (100 µL/mouse). When the tumor size reached 100–150 mm^3, the mice were evenly divided into negative control (vehicle), group 2c (50 mg/kg), and 5′-DFUR (50 mg/kg) groups (n = 6 each). Compound 2c and 5′-DFUR were dissolved in a solution containing 10% ethanol, 10% castor oil, and 80% saline that also served as the negative control. The mice were injected intraperitoneally every 2 days for 4 weeks, and the tumor volumes and body weights of the mice were measured every 2 days. Tumor volume was calculated using the following formula: tumor volume = length (mm) × width (mm) × width (mm) × 0.5. The TGI rate was determined as follows: TGI = 1 − (treatment final volume − treatment initial volume)/(control final volume − control initial volume) × 100%.

Data set [3] can be described thus: Stability of target compounds in mouse plasma, HPLC. Type of data set: in vitro ADME, C57BL/6 mice. To be noted: 50 μM, 37 °C. The protocol: (§3) The stability of the target compounds was tested first, and excellent stability was essential for physiological function evaluation. Phosphate-buffered saline (PBS) of different pH values was used to evaluate the stability of the target compounds in a weakly acidic tumor microenvironment (pH 6.5) versus a weakly alkaline normal physiological environment (pH 7.4). […] The stability of the target compounds in mouse and rat plasma was excellent. The concentrations of all target compounds remained at >80% of the initial concentrations after 24 h, with the concentrations of compounds 1c, 2c, and 3c being 89%, 88%, and 83% in mouse plasma and 86%, 84%, and 81% in rat plasma, respectively (Figure 3c,d).
(§4) PBS (pH 7.4) was made with 137 mM NaCl, 2.7 mM KCl, 10 mM Na2HPO4, and 1.8 mM KH2PO4, while PBS (pH 6.5) was made with 24.6 mM Na2HPO4 and 175.4 mM NaH2PO4. The target compounds were dissolved into the different buffers (50 μM; 1% DMSO), and the mixtures were incubated at 37 °C. A 100-μL sample was transferred to a vial for HPLC analysis at 1, 2, 4, 8, 12, and 24 h. C57BL/6 mice and SD rat orbital whole blood was collected into anticoagulation tubes and centrifuged at 4000× g for 5 min at 4 °C to obtain plasma. The target compounds were dissolved into the plasma (50 μM; 1% DMSO) and incubated at 37 °C. Each sample (100 μL) was collected and precipitated using 100 μL of acetonitrile. The mixture was vortexed for 5 min and centrifuged at 10,000× g for 10 min. The supernatant was transferred to a vial for HPLC analysis after 1, 2, 4, 8, 12, and 24 h.

The nature of data set [4]: Stability of target compounds in rat plasma, HPLC. It counts as in vitro ADME, SD rat. The note with it: 50 μM, 37 °C. Here is the method:
as §3, §4

The next data set concerns the target T1, NTR (Escherichia coli, UniProt P38489).
T1 construct: host or cells: Escherichia coli
In words: In vitro release evaluation: incubation with NTR and NADH, HPLC of derivative and released 5′-DFUR. The note with it: Escherichia coli; 50 µM compound, NTR 50 µg/mL, NADH 2 mM, PBS pH 7.4, 37 °C; read-out: half-life in the presence of NTR (converted). It counts as biochemical. The protocol: (§5) NTR levels are reportedly much higher in hypoxic tumors than in normal tissues. To investigate the mechanism of activation of the derivatives and the amount of 5′-DFUR released, we treated the target compounds with NTR extracted from Escherichia coli to determine whether they provided the desired active agent as expected. The test compounds (50 µM, 1% dimethyl sulfoxide [DMSO]) were dissolved in PBS buffer at pH 7.4 and incubated with NTR (50 µg/mL) and NADH (2 mM) at 37 °C, and the concentrations of the derivatives and 5′-DFUR during the bioreduction were detected by high-performance liquid chromatography (HPLC). The designed target compounds 1c–3c could be metabolized to form 5′-DFUR in the presence of NTR, while the nitro-free compounds 4c–6c could not be metabolized to form 5′-DFUR. […] The metabolic rate of compound 2c was the highest, with a half-life of 0.6 h. It was completely degraded after 4 h, and 69.6% of 5′-DFUR was released. […] During the experiment, other metabolites, such as hydroxylamine derivatives and amino derivatives generated by reducing the nitro group were also detected. […] Compounds 4c, 5c and 6c, without nitro groups, remained well-stabilized under NTR conditions, with concentrations > 90% after 12 h.
(§6) The target compounds NTR and NADH were dissolved in 10 mM PBS (pH 7.4; 1% DMSO). The final concentrations of the target compounds NTR and NADH in the mixtures were 50 μM, 50 μg/mL, and 2 mM, respectively. The mixture were incubated at 37 °C. The sample (100 μL) was collected and quenched by 100 µL of cold methanol. The mixture was vortexed for 5 min and centrifuged at 10,000× g for 10 min. The supernatant was transferred to a vial for HPLC analysis at 0.25, 0.5, 1, 2, 4, 8, and 12 h.

Data set [5] has as its target T2, NTR extracted from Escherichia coli (Escherichia coli, UniProt P38489).
T2 construct: host or cells: Escherichia coli
The description is as above. It counts as biochemical. The note with it: NTR 50 µg/mL, NADH 2 mM, PBS pH 7.4, 37 °C; for time after which compound was completely degraded by NTR / 5′-DFUR released: 50 µM compound; for 5′-DFUR released: at complete degradation. Here is the method:
as §5, §6

Data set [6] can be described thus: Stability of target compounds in phosphate-buffered saline (pH 6.5 and pH 7.4), HPLC. It counts as physicochemical. The note with it: PBS pH 6.5 and 7.4, mouse and rat plasma (Figure S1). The protocol: as §3, §4
Setting [7] is: medium with NTR and NADH 2 mM, read-out: IC50 NTR.
The mark [8] stands for this setting: medium without NTR, read-out: IC50 NTR-Free.

SMILES strings stand for the structures. Read-outs that look alike come from different tables or passages of the source.

T2 sequence (P38489 whole entry): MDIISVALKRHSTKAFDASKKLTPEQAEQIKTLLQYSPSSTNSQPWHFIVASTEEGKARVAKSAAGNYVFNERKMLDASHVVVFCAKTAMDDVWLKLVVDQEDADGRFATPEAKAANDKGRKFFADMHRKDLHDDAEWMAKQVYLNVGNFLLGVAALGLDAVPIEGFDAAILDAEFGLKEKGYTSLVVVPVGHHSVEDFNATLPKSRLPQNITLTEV
T1 sequence (P38489 whole entry): as above

With `C[C@H]1O[C@@H](n2cc(F)c(=O)[nH]c2=O)[C@H](O)[C@@H]1O` [5′-DFUR, 5′-deoxy-5-fluorouridine, reference compound], the IC50 in data set [1] (setting [7]) turned out to be 86.7 µM; in data set [1] (setting [8]), 83.6 µM; in data set [2] (setting [7]), 48.1 µM; in data set [2] (setting [8]), 50.4 µM. The “IC50 (NTR-Free)/ IC50 (NTR)” value in data set [1] turned out to be 0.96; in data set [2], 1.05. For the same compound, the “tumor growth inhibition (TGI) rate” value in the data set with HT29 colon cancer cells was 83.0%.
Take `C[C@H]1O[C@@H](n2cc(F)c(=O)n(Cc3ccc([N+](=O)[O-])cc3)c2=O)[C@H](O)[C@@H]1O` [Compound 1c]: the “concentration relative to initial concentration after 24 h in mouse plasma” value in data set [3] worked out at 89%. Moreover, the “concentration relative to initial concentration after 24 h in rat plasma” value in data set [4] worked out at 86%. Moreover, at NTR, the half-life at 50 µM is 1.3 h. For the same compound, in data set [5], the “time after which compound was completely degraded by NTR” value amounted to 12 h. The “5′-DFUR released” value in data set [5] is 45.1%. Further, the IC50 turned out to be 106 µM in data set [1] (setting [7]), 470 µM in data set [1] (setting [8]), 79 µM in data set [2] (setting [7]) and 584 µM in data set [2] (setting [8]). In addition, the “IC50 (NTR-Free)/ IC50 (NTR)” value in data set [1] is reported as 4.42; in data set [2], 7.39.
On to `C[C@H]1O[C@@H](n2cc(F)c(=O)n(Cc3ccc([N+](=O)[O-])s3)c2=O)[C@H](O)[C@@H]1O` [Compound 3c], for which the “concentration relative to initial concentration after 24 h in mouse plasma” value in data set [3] amounted to 83%. Also, the “concentration relative to initial concentration after 24 h in rat plasma” value in data set [4] stood at 81%. The half-life at 50 µM at NTR was 1 h. Moreover, the “time after which compound was completely degraded by NTR” value in data set [5] was determined as 8 h. The “5′-DFUR released” value in data set [5] was 55.6%. In addition, the 50% inhibitory concentration (IC50) was 96.4 µM in data set [1] (setting [7]), 435 µM in data set [1] (setting [8]), 63.3 µM in data set [2] (setting [7]) and 457 µM in data set [2] (setting [8]). Moreover, the entries for the “IC50 (NTR-Free)/ IC50 (NTR)” value in data set [1] and in data set [2] were 4.52 and 7.22, respectively.
For `C[C@H]1O[C@@H](n2cc(F)c(=O)n(Cc3ccccc3)c2=O)[C@H](O)[C@@H]1O` [Compound 4c], the “stability in PBS at different pH values and plasma (in words)” value in data set [6] is “similarly stable”. Further, in data set [5], the “concentration remaining under NTR conditions after 12 h” value (“concentration remaining” below) is over 90%. For the same compound, the concentration for half-maximal inhibition (IC50) in data set [1] (setting [7]) amounted to 537 µM; in data set [1] (setting [8]), 495 µM; in data set [2] (setting [7]), 614 µM; in data set [2] (setting [8]), 621 µM. For the same compound, the “IC50 (NTR-Free)/ IC50 (NTR)” value in data set [1] is recorded as 0.92; in data set [2], 1.01.
Consider `C[C@H]1O[C@@H](n2cc(F)c(=O)n(Cc3ccco3)c2=O)[C@H](O)[C@@H]1O` [Compound 5c], for which the “stability in PBS at different pH values and plasma (in words)” value in data set [6] was “similarly stable”. Further, the “concentration remaining” value in data set [5] is reported as over 90%. Further, the IC50 stood at 423 µM in data set [1] (setting [7]), 412 µM in data set [1] (setting [8]), 422 µM in data set [2] (setting [7]) and 459 µM in data set [2] (setting [8]). For the same compound, the “IC50 (NTR-Free)/ IC50 (NTR)” value is on record as 0.97 in data set [1] and 1.09 in data set [2].
Take `C[C@H]1O[C@@H](n2cc(F)c(=O)n(Cc3cccs3)c2=O)[C@H](O)[C@@H]1O` [Compound 6c]: in data set [6], the “stability in PBS at different pH values and plasma (in words)” value is recorded as “similarly stable”. Besides, the “concentration remaining” value in data set [5] was over 90%. The IC50 in data set [1] (setting [7]) turned out to be 473 µM; in data set [1] (setting [8]), 468 µM; in data set [2] (setting [7]), 465 µM; in data set [2] (setting [8]), 474 µM. In addition, the “IC50 (NTR-Free)/ IC50 (NTR)” value is 0.99 in data set [1] and 1.02 in data set [2].

The IC50 is the concentration that inhibits the measured activity by half. As a reminder, the half-life is the time needed for the level to fall by half in the phase considered.
